In PubChem BioAssay AID330 (DTP/NCI, 2004):
Values joined by “and” are separate entries in the source; they are usually repeats but may differ in a detail not shown here. Equal values may be shown once. Toxic doses and inconclusive results are not listed. Peptide text beside a SMILES is read from it. * marks the point of attachment. Cbz = O=C(OCc1ccccc1)*; Bn = c1ccc(C*)cc1

System: P388 leukemia ip, CD2F1 mice, survival T/C
Experiment: NCI In Vivo Anticancer Drug Screen. Data for tumor model P388 Leukemia (intraperitoneal) in CD2F1 (CDF1) mice
Conditions: endpoint: median survival time, higher = longer survival
In short: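 Mice carrying the transplanted tumor received test compound or vehicle. Survival was recorded in each group, and the value is the treated-group measurement divided by that of the vehicle-treated control group.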

[1] = dose: 60.0 mg/kg/injection, schedule: Q01DX005 (ip), vehicle: saline with Tween-80
[2] = dose: 120.0 mg/kg/injection, schedule: Q01DX005 (ip), vehicle: saline with Tween-80
[3] = dose: 240.0 mg/kg/injection, schedule: Q01DX005 (ip), vehicle: saline with Tween-80
[4] = dose: 60.0 mg/kg/injection, schedule: Q01DX005 (ip), vehicle: Klucel (hydroxypropylcellulose) (HPC)
[5] = dose: 120.0 mg/kg/injection, schedule: Q01DX005 (ip), vehicle: Klucel (hydroxypropylcellulose) (HPC)
[6] = dose: 240.0 mg/kg/injection, schedule: Q01DX005 (ip), vehicle: Klucel (hydroxypropylcellulose) (HPC)
[7] = dose: 50.0 mg/kg/injection, schedule: Q01DX005 (ip), vehicle: Klucel (hydroxypropylcellulose) (HPC)
[8] = dose: 100.0 mg/kg/injection, schedule: Q01DX005 (ip), vehicle: Klucel (hydroxypropylcellulose) (HPC)
[9] = dose: 200.0 mg/kg/injection, schedule: Q01DX005 (ip), vehicle: Klucel (hydroxypropylcellulose) (HPC)
[10] = dose: 50.0 mg/kg/injection, schedule: Q01DX005 (ip), vehicle: saline with Tween-80
[11] = dose: 100.0 mg/kg/injection, schedule: Q01DX005 (ip), vehicle: saline with Tween-80
[12] = dose: 200.0 mg/kg/injection, schedule: Q01DX005 (ip), vehicle: saline with Tween-80
[13] = dose: 25.0 mg/kg/injection, schedule: Q01DX009 (ip), vehicle: saline with Tween-80
[14] = dose: 50.0 mg/kg/injection, schedule: Q01DX009 (ip), vehicle: saline with Tween-80

With `CCOC(CCC1(C)C(=O)CCC1=O)(OCC)OCC` the T/C [1] was 106 % of control, the T/C [2] was 106 % of control and the T/C [3] was 99 % of control.
`O=C(c1cccs1)C1SC(C(=O)c2cccs2)C2(O)c3cccc4cccc(c34)C12O` (stereo unspecified) was tested, and the T/C (dose: 7.5 mg/kg/injection, schedule: Q01DX009 (ip), vehicle: Klucel (hydroxypropylcellulose) (HPC)) was 100 % of control.
With `c1ccc(Nc2ccc(CN3CCOCC3)cc2)cc1` the T/C [4] was 105 % of control, the T/C [5] was 96 % of control and the T/C [6] was 88 % of control.
In the case of `COc1cc(S(=O)(=O)O)ccc1N=N/C(=N\Nc1ccc(S(=O)(=O)O)cc1OC)C(N)=O`, the T/C [7] is reported as 100 % of control, the T/C [8] is reported as 108 % of control and 92 % of control and the T/C [9] is reported as 103 % of control and 93 % of control.
`Cn1c(=O)c2c(ncn2N)n(C)c1=O` was tested, and the T/C [4] was 111 % of control, the T/C [5] was 102 % of control and the T/C [6] was 107 % of control.
`CC1NC(=O)N(C(C)C)C1=O` (stereo unspecified) was tested, and the T/C [10] was 100 % of control, the T/C [11] was 100 % of control and the T/C [12] was 106 % of control.
With `COC(=O)C1(C(C)C)N=C(c2ccccc2)OO1` (stereo unspecified) the T/C [13] was 91 % of control, the T/C [14] was 100 % of control and the T/C (dose: 100.0 mg/kg/injection, schedule: Q01DX009 (ip), vehicle: saline with Tween-80) was 104 % of control.
`Nc1cc(O)c(O)c2c1C(=O)c1c(O)c(O)cc(N)c1C2=O` was tested, and the T/C [7] was 102 % of control, the T/C [8] was 105 % of control and the T/C [9] was 99 % of control.
In the case of `O=C(O)Cc1ccc(-c2cn3c(n2)sc2ccccc23)cc1`, the T/C (dose: 50.0 mg/kg/injection, schedule: Q01DX009 (ip), vehicle: saline) is reported as 108 % of control, the T/C (dose: 100.0 mg/kg/injection, schedule: Q01DX009 (ip), vehicle: saline) is reported as 107 % of control and the T/C (dose: 200.0 mg/kg/injection, schedule: Q01DX009 (ip), vehicle: saline) is reported as 112 % of control.
In the case of `CCCCCCCCCCCCCCCC(=O)N(CC#CCN(C(=O)CCCCCCCCCCCCCCC)C(C)CCCN(CC)CC)C(C)CCCN(CC)CC` (stereo unspecified), the T/C (dose: 25.0 mg/kg/injection, schedule: Q01DX009 (ip), vehicle: other) is reported as 97 % of control and the T/C (dose: 50.0 mg/kg/injection, schedule: Q01DX009 (ip), vehicle: other) is reported as 101 % of control.
With `NNC(=O)c1nnc(N)o1` the T/C [1] was 106 % of control, the T/C [2] was 106 % of control and the T/C [3] was 95 % of control.
In the case of `CCOC(=O)c1nc(C)n2cc([N+](=O)[O-])ccc12`, the T/C (dose: 2.0 mg/kg/injection, schedule: Q01DX009 (ip), vehicle: saline) is reported as 86 % of control, the T/C (dose: 4.0 mg/kg/injection, schedule: Q01DX009 (ip), vehicle: saline) is reported as 91 % of control and the T/C (dose: 8.0 mg/kg/injection, schedule: Q01DX009 (ip), vehicle: saline) is reported as 88 % of control.
In the case of `COCCC1OCC(CCl)O1` (stereo unspecified), the T/C [10] is reported as 104 % of control, the T/C [11] is reported as 99 % of control and the T/C [12] is reported as 108 % of control.
`COc1ccccc1NC(=O)c1cc2cc(Br)ccc2cc1O` was tested, and the T/C [1] was 100 % of control, the T/C [2] was 102 % of control and the T/C [3] was 108 % of control.
With `CC(=O)NC1C(=O)OC(C(O)CO)C1O` (stereo unspecified) the T/C (dose: 12.5 mg/kg/injection, schedule: Q01DX009 (ip), vehicle: water) was 106 % of control, the T/C (dose: 25.0 mg/kg/injection, schedule: Q01DX009 (ip), vehicle: water) was 91 % of control and the T/C (dose: 50.0 mg/kg/injection, schedule: Q01DX009 (ip), vehicle: water) was 94 % of control. For the same compound, the T/C (dose: 100.0 mg/kg/injection, schedule: Q01DX009 (ip), vehicle: water) was 102 % of control and the T/C (dose: 200.0 mg/kg/injection, schedule: Q01DX009 (ip), vehicle: water) was 98 % of control.
In the case of `CCCS(=O)(=O)N/N=C(\C)c1cccs1`, the T/C (dose: 50.0 mg/kg/injection, schedule: Q01DX009 (ip), vehicle: Klucel (hydroxypropylcellulose) (HPC)) is reported as 95 % of control and the T/C (dose: 100.0 mg/kg/injection, schedule: Q01DX009 (ip), vehicle: Klucel (hydroxypropylcellulose) (HPC)) is reported as 87 % of control.
`COC(=O)C1(c2ccc(OC)cc2)NC(c2ccccc2)C2C(=O)N(c3ccc(OC)cc3)C(=O)C21` (stereo unspecified) was tested, and the T/C [1] was 95 % of control, the T/C [2] was 96 % of control and the T/C [3] was 89 % of control.
`N#CC1(c2ccccc2)OC1(C#N)c1ccccc1` (stereo unspecified) was tested, and the T/C (dose: 12.5 mg/kg/injection, schedule: Q01DX009 (ip), vehicle: saline with Tween-80) was 96 % of control, the T/C [13] was 101 % of control and the T/C (dose: 37.5 mg/kg/injection, schedule: Q01DX009 (ip), vehicle: acetone) was 96 % of control. For the same compound, the T/C [14] was 93 % of control, the T/C (dose: 75.0 mg/kg/injection, schedule: Q01DX009 (ip), vehicle: acetone) was 95 % of control and the T/C (dose: 150.0 mg/kg/injection, schedule: Q01DX009 (ip), vehicle: acetone) was 113 % of control.
In the case of `NC(=O)C(Cc1ccccc1)NC(=O)C(CSCc1ccccc1)NC(=O)OCc1ccccc1` (stereo unspecified) (Cbz-Cys(Bn)-Phe-NH2; configuration not given here), the T/C (dose: 12.5 mg/kg/injection, schedule: Q01DX005 (ip), vehicle: Klucel (hydroxypropylcellulose) (HPC)) is reported as 103 % of control, the T/C (dose: 25.0 mg/kg/injection, schedule: Q01DX005 (ip), vehicle: Klucel (hydroxypropylcellulose) (HPC)) is reported as 102 % of control and the T/C [7] is reported as 86 % of control and 91 % of control.
With `Nc1nc2nc(N)[nH]c2c(=O)[nH]1` the T/C (dose: 12.5 mg/kg/injection, schedule: Q01DX005 (ip), vehicle: saline with Tween-80) was 95 % of control, the T/C (dose: 25.0 mg/kg/injection, schedule: Q01DX005 (ip), vehicle: saline with Tween-80) was 100 % of control and 105 % of control and 106 % of control and the T/C [10] was 100 % of control and 104 % of control and 113 % of control. For the same compound, the T/C [12] was 107 % of control.
With `NCCCNc1cc(O)cc2cccnc12` the T/C (dose: 50.0 mg/kg/injection, schedule: Q01DX005 (ip), vehicle: saline) was 93 % of control and the T/C (dose: 100.0 mg/kg/injection, schedule: Q01DX005 (ip), vehicle: saline) was 95 % of control.
For `[Cl][Ru][Cl].[NH-]CC[NH-].[NH-]CC[NH-]`, the T/C (dose: 12.5 mg/kg/injection, schedule: Q04DX003 (ip), vehicle: water) was 111 % of control and 123 % of control and 124 % of control, the T/C (dose: 25.0 mg/kg/injection, schedule: Q04DX003 (ip), vehicle: water) was 107 % of control and the T/C (dose: 50.0 mg/kg/injection, schedule: Q04DX003 (ip), vehicle: water) was 155 % of control.
In the case of `CC1C(=O)SCC1(O)c1ccccc1` (stereo unspecified), the T/C (dose: 100.0 mg/kg/injection, schedule: Q04DX002 (ip), vehicle: Klucel (hydroxypropylcellulose) (HPC)) is reported as 102 % of control, the T/C (dose: 200.0 mg/kg/injection, schedule: Q04DX002 (ip), vehicle: Klucel (hydroxypropylcellulose) (HPC)) is reported as 103 % of control and the T/C (dose: 400.0 mg/kg/injection, schedule: Q04DX002 (ip), vehicle: Klucel (hydroxypropylcellulose) (HPC)) is reported as 107 % of control.
For `CN1C(=O)CNC(=O)c2ccc(Cl)cc21`, the T/C [10] was 108 % of control, the T/C [11] was 90 % of control and the T/C [12] was 115 % of control.
With `CSC(C=C1C=CN(CC(=O)c2ccccc2)C=C1)=C(C#N)C#N` the T/C (dose: 25.0 mg/kg/injection, schedule: Q04DX002 (ip), vehicle: saline with Tween-80) was 97 % of control, the T/C (dose: 50.0 mg/kg/injection, schedule: Q04DX002 (ip), vehicle: saline with Tween-80) was 102 % of control and the T/C (dose: 100.0 mg/kg/injection, schedule: Q04DX002 (ip), vehicle: saline with Tween-80) was 99 % of control.
`c1cc2c(cc1CN1CCOCC1)Sc1cc(CN3CCOCC3)ccc1N2` was tested, and the T/C [4] was 96 % of control, the T/C [5] was 89 % of control and the T/C [6] was 92 % of control.
For `C[N+]1(Cc2ccccc2)C2CCC1C(CCl)C(O)C2` (stereo unspecified), the T/C (dose: 3.12 mg/kg/injection, schedule: Q01DX009 (ip), vehicle: saline) was 111 % of control, the T/C (dose: 6.25 mg/kg/injection, schedule: Q01DX009 (ip), vehicle: saline) was 115 % of control and the T/C (dose: 12.5 mg/kg/injection, schedule: Q01DX009 (ip), vehicle: saline) was 101 % of control and 104 % of control.
`O=C(CCl)c1cccnc1C(=O)O` was tested, and the T/C (dose: 25.0 mg/kg/injection, schedule: Q01DX009 (ip), vehicle: saline sonified) was 100 % of control, the T/C (dose: 50.0 mg/kg/injection, schedule: Q01DX009 (ip), vehicle: saline sonified) was 100 % of control and the T/C (dose: 100.0 mg/kg/injection, schedule: Q01DX009 (ip), vehicle: saline sonified) was 90 % of control.
With `CC(C)C[C@H](O)C(=O)O` the T/C (dose: 50.0 mg/kg/injection, schedule: Q04DX003 (ip), vehicle: saline) was 100 % of control, the T/C (dose: 100.0 mg/kg/injection, schedule: Q04DX003 (ip), vehicle: saline) was 100 % of control and the T/C (dose: 200.0 mg/kg/injection, schedule: Q04DX003 (ip), vehicle: saline) was 100 % of control.
For `COC(=O)C1=C(C)NC(=S)NC1c1ccco1` (stereo unspecified), the T/C (dose: 100.0 mg/kg/injection, schedule: Q04DX003 (ip), vehicle: saline with Tween-80) was 95 % of control, the T/C (dose: 200.0 mg/kg/injection, schedule: Q04DX003 (ip), vehicle: saline with Tween-80) was 95 % of control and the T/C (dose: 400.0 mg/kg/injection, schedule: Q04DX003 (ip), vehicle: saline with Tween-80) was 100 % of control.
